# Patent publication US20230183239A1, “ECTONUCLEOTIDE PYROPHOSPHATASE-PHOSPHODIESTERASE 1 (ENPP-1) INHIBITORS AND USES THEREOF” (AbbVie Inc., priority 2017, published 2023)
# What was measured:
# Assay type in all cases: biochemical
# ENPP1 [1] = molecular target: T1, ENPP1 (Homo sapiens, UniProt P22413); assay: Substrate selectivity ratio, inhibition of cGAMP hydrolysis versus ATP hydrolysis; details: ratio Ki AMP-pNP / Ki cGAMP
# T1 sequence (P22413 1-925): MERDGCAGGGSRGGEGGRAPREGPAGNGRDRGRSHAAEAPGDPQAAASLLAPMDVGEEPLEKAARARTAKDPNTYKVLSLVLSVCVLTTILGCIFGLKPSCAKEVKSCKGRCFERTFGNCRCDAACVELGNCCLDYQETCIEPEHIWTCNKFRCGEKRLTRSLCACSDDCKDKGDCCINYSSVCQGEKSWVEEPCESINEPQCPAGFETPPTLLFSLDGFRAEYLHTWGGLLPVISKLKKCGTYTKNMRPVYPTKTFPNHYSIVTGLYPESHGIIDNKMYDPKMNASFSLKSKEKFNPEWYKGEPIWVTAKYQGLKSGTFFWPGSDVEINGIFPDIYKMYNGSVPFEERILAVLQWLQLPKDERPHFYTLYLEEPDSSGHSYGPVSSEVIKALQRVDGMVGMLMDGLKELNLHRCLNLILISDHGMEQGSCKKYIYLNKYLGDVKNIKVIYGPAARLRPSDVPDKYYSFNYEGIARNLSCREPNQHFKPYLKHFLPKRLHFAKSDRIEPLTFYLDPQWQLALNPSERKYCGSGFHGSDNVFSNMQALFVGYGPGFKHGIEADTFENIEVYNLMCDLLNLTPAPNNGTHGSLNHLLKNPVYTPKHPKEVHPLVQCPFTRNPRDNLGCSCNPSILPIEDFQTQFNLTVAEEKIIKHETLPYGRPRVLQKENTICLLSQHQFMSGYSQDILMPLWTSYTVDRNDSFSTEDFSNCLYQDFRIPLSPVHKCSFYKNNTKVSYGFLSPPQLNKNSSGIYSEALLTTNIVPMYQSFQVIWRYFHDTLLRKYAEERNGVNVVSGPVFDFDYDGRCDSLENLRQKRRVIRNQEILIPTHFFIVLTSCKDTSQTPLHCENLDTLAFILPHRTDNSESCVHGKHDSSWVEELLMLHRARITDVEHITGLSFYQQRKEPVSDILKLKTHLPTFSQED
# Protocol: The selectivity ratios for inhibition of cGAMP hydrolysis versus ATP hydrolysis were then calculated as follows: […]
# ENPP1 [2] = molecular target: T1, ENPP1; assay: Indirect quantitation of 2',3'-cGAMP hydrolysis (AMP-Glo Assay kit); details: cGAMP substrate; Ki from IC50 by Cheng-Prusoff; read-out: ENPP1 Inhibition -cGAMP: Ki
# ENPP1 [3] = molecular target: T1, ENPP1; assay: ENPP1 enzyme assay with AMP-pNP substrate (hydrolysis of ATP analog); details: AMP-pNP substrate (ATP analog); Ki from IC50 by Cheng-Prusoff; read-out: ENPP1 Inhibition _AMP-pNP: Ki
# Method in brief: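 Human recombinant ENPP1 (60 ng/well) with 300 µM AMP-pNP in 50 mM Tris-HCl pH 8.5, 250 mM NaCl, 0.5 mM CaCl2, 1 µM ZnCl2, 0.1% DMSO, 20 min at 37 °C.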
Structure (SMILES),Substrate Selectivity: Ki_AMP-pNP/Ki_cGAMP (ENPP1 [1]),Ki (ENPP1 [2]) [nM],Ki (ENPP1 [3]) [nM]
"COc1ccc2c(Oc3ccc(S(N)(=O)=O)cc3)ncnc2c1 [Example 356, 4-((7-methoxyquinazolin-4-yl)oxy)benzene sulfonamide]",40,< 100,100 to 1000
"COc1ccc2c(-c3ccc(C(C)(C)NS(N)(=O)=O)cc3)ccnc2c1 [Example 357, N-(2-(4-(7-methoxyquinolin-4-yl)phenyl)propan-2-yl)sulfamide]",>18,< 100,100 to 1000
"COc1ccc2c(Oc3ccc(S(N)(=O)=O)cc3)c(C)cnc2c1 [Example 359, 4-((7-methoxy-3-methylquinolin-4-yl)oxy)benzene sulfonamide]",54,< 100,100 to 1000
"COc1ccc2c(Oc3ccc(S(N)(=O)=O)cc3)ccnc2n1 [Example 361, 4-(7-Methoxy-[1,8]naphthyridin-4-yl-oxy)-benzene sulfonamide]",32,< 100,< 100
"COc1ccc2c(Oc3ccc(NS(=O)(=O)NN)cc3)ccnc2c1 [Example 362, N-(4-((7-methoxyquinolin-4-yl)oxy)phenyl)hydrazinesulfonamide]",>216,100 to 1000,> 1000
"COc1ccc2c(N3CCC4(CC3)CCN(S(N)(=O)=O)C4)ccnc2c1 [Example 363, 8-(7-methoxyquinolin-4-yl)-2,8-diazaspiro[4.5]decane-2-sulfonamide]",49,< 100,100 to 1000
"COc1ccc2nccc(N3CCC4(CC3)CCN(S(N)(=O)=O)C4)c2c1 [Example 364, 8-(6-methoxyquinolin-4-yl)-2,8-diazaspiro[4.5]decane-2-sulfonamide]",43,< 100,100 to 1000
"COc1ccc2c(-c3ccc4c(c3)CN(S(N)(=O)=O)CC4)ccnc2n1 [Example 365, 7-(7-methoxy-1,8-naphthyridin-4-yl)-3,4-dihydroisoquinoline-2(1H)-sulfonamide]",18,< 100,100 to 1000
"COc1cc2nccc(-c3ccc4c(c3)CCN(S(N)(=O)=O)C4)c2cc1OC [Example 367, 6-(6,7-dimethoxyquinolin-4-yl)-3,4-dihydroisoquinoline-2(1H)-sulfonamide]",>35,< 100,> 1000
"COc1ccc2c(-c3ccc(CN(C)S(N)(=O)=O)cc3)ccnc2c1 [Example 368, N-(4-(7-methoxyquinolin-4-yl)benzyl)-N-methyl sulfamide]",>7,< 100,100 to 1000
"COc1ccc2c(-c3ccc4c(c3)CN(S(N)(=O)=O)CC4)c(C)cnc2c1 [Example 371, 7-(7-methoxy-3-methylquinolin-4-yl)-3,4-dihydroisoquinoline-2(1H)-sulfonamide]",>32,< 100,> 1000
"COc1ccc2c(-c3ccc(CNS(N)(=O)=O)c(OC)c3)ccnc2c1 [Example 373, N-(2-methoxy-4-(7-methoxyquinolin-4-yl)benzyl)sulfamide]",>136,100 to 1000,> 1000
"COc1ccc2c(-c3ccc(CNS(N)(=O)=O)c(C)c3)ccnc2c1 [Example 374, N-(4-(7-methoxyquinolin-4-yl)-2-methylbenzyl) sulfamide]",>138,< 100,> 1000
"COc1ccc2c(N3CCc4cc(NS(N)(=O)=O)cc(F)c43)ccnc2c1 [Example 375, N-(7-fluoro-1-(7-methoxyquinolin-4-yl)indolin-5-yl)sulfamide]",25,< 100,< 100
"COc1ccc2c(N3CCc4cc(NS(N)(=O)=O)ccc43)ccnc2c1F [Example 376, N-(1-(8-fluoro-7-methoxyquinolin-4-yl)indolin-5-yl)sulfamide]",>77,100 to 1000,> 1000
"COc1ccc2c(Oc3ccc(S(N)(=O)=O)cc3)c(C(F)(F)F)cnc2c1 [Example 377, 4-((7-methoxy-3-(trifluoromethyl)quinolin-4-yl)oxy) benzenesulfonamide]",>89,100 to 1000,> 1000
"COc1ccc2c(N3CCc4cc(NS(N)(=O)=O)ccc43)c(C)cnc2c1 [Example 378, N-(1-(7-methoxy-3-methylquinolin-4-yl)indolin-5-yl)sulfamide]",42,< 100,100 to 1000

# Now from value to compound:
Substrate Selectivity: Ki_AMP-pNP/Ki_cGAMP (ENPP1 [1]),Ki (ENPP1 [2]) [nM],Ki (ENPP1 [3]) [nM],Structure (SMILES)
>41,< 100,100 to 1000,"COc1ccc2c(N3CCc4c3ccc(NS(N)(=O)=O)c4F)ccnc2c1 [Example 379, N-(4-fluoro-1-(7-methoxyquinolin-4-yl)indolin-5-yl)sulfamide]"
>38,< 100,100 to 1000,"COc1ccc2c(-c3ccc(CNS(N)(=O)=O)cc3)c(F)cnc2c1 [Example 381, N-(4-(7-methoxy-3-Fluoro-quinolin-4-yl)benzyl) Sulfamide]"
>142,< 100,> 1000,"COc1ccc2c(Oc3ccc(S(=N)(=O)O)cc3F)ccnc2c1 [Example 382, 3-fluoro-4-((7-methoxyquinolin-4-yl)oxy)benzene sulfonamide]"
>44,< 100,> 1000,"COc1ccc2c(-n3cnc(CNS(N)(=O)=O)c3)ccnc2c1 [Example 385, N-((1-(7-methoxyquinolin-4-yl)-1H-imidazol-4-yl)methyl)sulfamide]"
39,< 100,100 to 1000,"COc1ccc2c(-c3ccc(CNS(N)(=O)=O)cc3)c(C(F)(F)F)cnc2c1 [Example 386, N-(4-(7-methoxy-3-(trifluoromethyl)quinolin-4-yl)benzyl) sulfamide]"
36,< 100,> 1000,"COc1ccc2c(-c3ccc(CNS(N)(=O)=O)cn3)ccnc2c1 [Example 387, ((6-(7-methoxy quinolin-4-yl)pyridin-3-yl)methyl)sulfamide]"
34,< 100,< 100,"COc1ccc2c(-c3ccc(CNS(N)(=O)=O)s3)ccnc2c1 [Example 389, N-((5-(7-methoxyquinolin-4-yl)thiophen-2-yl)methyl)sulfamide]"
>133,< 100,> 1000,"COc1ccc2c(N3CCc4cc(NS(N)(=O)=O)ccc43)ncnc2c1 [Example 392, N-(1-(7-methoxyquinazolin-4-yl)indolin-5-yl)sulfamide]"
51,< 100,100 to 1000,"COc1cc2nccc(Oc3ccc(S(N)(=O)=O)cc3)c2cn1 [Example 393, 4-((7-methoxy-1,6-naphthyridin-4-yl)oxy)benzenesulfonamide]"
>95,< 100,> 1000,"COc1cc(F)c2c(-c3ccc(CNS(N)(=O)=O)cc3)ccnc2c1 [Example 394, N-(4-(5-fluoro-7-methoxyquinolin-4-yl)benzyl)sulfamide]"
>31,< 100,100 to 1000,"COc1cc2ncc(C#N)c(-c3ccc(CNS(N)(=O)=O)cc3)c2cc1F [Example 395, N-(4-(3-cyano-6-fluoro-7-methoxyquinolin-4-yl)benzyl)sulfamide]"
>20,100 to 1000,> 1000,"COc1ccc2c(-c3ccc(NS(N)(=O)=O)cc3)ccnc2c1 [Example 396, N-(4-(7-methoxyquinolin-4-yl)phenyl)sulfamide]"
>13,< 100,100 to 1000,"COc1ccc2c(Oc3ccc(NS(N)(=O)=O)cc3)cc(C)nc2c1 [Example 397, N-(4-((7-methoxy-2-methylquinolin-4-yl)oxy)phenyl)sulfamide]"
